Measurements published in patent US20250205258A1 (priority 2022, published 2025).

Legend:
[1] = tested on: Human lung adenocarcinoma cells A549; test: CCK-8 in vitro antitumor activity (Table 5); assay type: cell-based; conditions: A549, CCK-8, 72 hours
Source text: (§1) Test Method: The CCK-8 method from “Methods for New Drug Pharmacological Research” edited by Lv Qiujun (2007: 242-243) was adopted.
(§2) Cell lines used: Human lung adenocarcinoma cells A549, human high-metastasis lung cancer cells 95D, and human colon cancer cells HCT116, which were cryopreserved and passaged by the Pharmacological Laboratory of the Shanghai Institute of Pharmaceutical Industry, were selected. The culture medium used was DMEM+10% FBS+antibiotics.
(§3) Cells in the logarithmic growth phase were taken and seeded into 96-well plates at a density of 7×10^3 cells per well. They were then incubated at 37° C. in a 5% CO2 environment for 24 hours to maintain a normal physiological pH.
(§4) After cell adhesion, different concentrations of the test compounds, namely the bufalin derivatives IVa to IVc prepared in Example 5, as well as the comparative compound doxorubicin, were added to three replicate wells, with 0.1% DMSO added to separate wells as a control.
(§5) After 72 hours, 10 μL of the CCK-8 cell counting kit was added to each well, and the plates were incubated again at 37° C. for 0.5 to 1 hour. The absorbance (OD) was read at 450 nm on a full-function microplate reader, Biotek Synergy H2, and the concentration causing 50% inhibition of cell growth (IC50) was calculated through simulation using GraphPad Prism software.

[2] = tested on: human colon cancer cells HCT116; test: CCK-8 in vitro antitumor activity (Table 5); assay type: cell-based; conditions: for IC50: Homo sapiens, HCT-116, HCT116, CCK-8, 72 hours; for activity against HCT116 compared with doxorubicin: HCT116, versus doxorubicin
Source text: as §1, §2, §3, §4, §5

[3] = tested on: human high-metastasis lung cancer cells 95D; test: CCK-8 in vitro antitumor activity (Table 5); assay type: cell-based; conditions: for IC50: Homo sapiens, CCK-8, 72 hours
Source text: as §1, §2, §3, §4, §5

[4] = tested on: human colorectal cancer cell line HCT116; test: CCK-8 in vitro antitumor activity (Effect Example 1); assay type: cell-based; conditions: HCT-116, HCT116, CCK-8, 72 hours
Protocol: (§6) The CCK-8 method described in “Methods for New Drug Pharmacological Research” (edited by Lv Qiujun, 2007: 242-243) was adopted.
(§7) The cell lines used were human lung adenocarcinoma cell line A549 and human colorectal cancer cell line HCT116, which were cryopreserved and passaged in the pharmacological laboratory of the Shanghai Institute of Pharmaceutical Industry. The culture medium was DMEM supplemented with 10% FBS and antibiotics.
(§8) Cells in logarithmic growth phase were seeded into 96-well plates at a density of 7×10^3 cells per well and incubated at 37° C. in a 5% CO2 environment for 24 hours to maintain a normal physiological pH.
(§9) After cell attachment, different concentrations of the test compounds, namely the bufalin derivatives 1a to 1l prepared in Example 1, as well as the compound doxorubicin, were added to triplicate wells, with 0.1% DMSO added as a control.
(§10) After 72 hours, 10 μL of CCK-8 cell counting kit was added to each well, and the plates were incubated again at 37° C. for 0.5 to 1 hour. The absorbance (OD) was read at 450 nm on a full-featured microplate reader (Biotek Synergy H2), and the concentration causing 50% cell growth inhibition (IC50) was calculated by simulation using GraphPad Prism software.

[5] = tested on: human lung adenocarcinoma cell line A549; test: as above; assay type: cell-based; conditions: A549, CCK-8, 72 hours
Protocol: as §6, §7, §8, §9, §10

95D cells = test: Cell scratch test, migration of 95D cells; assay type: cell-based, human; conditions: different concentrations, FIG. 1 and FIG. 2
Protocol: Test Method: Draw three parallel lines with a spacing of approximately 0.5 cm on the outer bottom surface of a 6-well plate. After evenly seeding the tumor cells 95D onto the plate (5×10^5 cells/well), create a cell scratch using a pipette. Wash the cells three times with phosphate-buffered saline (PBS) to remove the scratched-off cells. Then, add medium that has been pre-mixed with different concentrations of compound 1a or 1b.
Place the plate in a 37° C., 5% CO2 incubator for culturing. Sample the cells at 0, 12, 24, 36, and 48 hours, and take photographs under a microscope.
Using ImageJ software, measure the area and height of the scratch site. The average scratch width can be obtained by dividing the area by the height. Subtract the scratch width at the end of the experiment from the scratch width at the 0-hour point to obtain the distance of cell migration. Then, use this distance value to calculate the cell migration index (MI) according to the following formula:
Cell Migration Index(MI)=(Initial Blank Width−Blank Width at a Specific Time Point)/Initial Blank Width.

[6] = tested on: HCT116 colorectal cancer cells xenografts; test: In vivo antitumor activity, HCT116 xenografts (Efficacy Example 2); design: species or system BALB/C nude mice; conditions: 1a 10 mg/kg ip × 7, qod, 5-Fluorouracil 15 mg/kg ip × 7
Source text: (§11) Experimental Method: The test animals were male SPF-grade BALB/C nude mice weighing 18 to 20 grams.
(§12) Experimental Procedure: Well-grown HCT116 colorectal cancer tumor masses were cut into uniform small pieces of approximately 3 mm in size under aseptic conditions. A cannula needle was used to inoculate one piece subcutaneously into the right axilla of each test mouse. Nine days after inoculation, the average tumor volume was approximately 113 to 119 mm^3. The animals were then regrouped based on tumor size, eliminating those with excessively large or small tumors, to ensure that the average tumor volume was consistent among the experimental groups. Administration by intraperitoneal injection was then initiated according to the following protocol, with a dosing volume of 0.2 mL per 20 grams of body weight:
(§13) From the 9th day of inoculation, the maximum tumor length (a, in mm) and the perpendicular maximum tumor width (b, in mm) were measured twice a week using a digital electronic caliper.
(§14) The tumor volume (TV) was calculated using the formula: TV=ab^2/2.
(§15) The relative tumor volume (RTV) was calculated using the formula: RTV=Vt/Vo, where Vo is the tumor volume measured at the time of cage distribution (i.e., day 1) and Vt is the tumor volume at each subsequent measurement.
(§16) On the 27th day after inoculation (day 19), the animals were euthanized, weighed, dissected to remove the tumor masses, and the tumor weights were measured.

[7] = tested on: HCT116 colorectal cancer cells xenografts; test: In vivo antitumor activity, HCT116 xenografts (Efficacy Example 3); design: species or system BALB/C nude mice; conditions: 1c 1 mg/kg iv × 7, qod, 5-Fluorouracil 15 mg/kg ip × 7; for Animal weight (After tumor removal): nude mice, HCT116 xenograft; for RTV (d18): relative tumor volume; for TGI (%): tumor volume inhibition
Source text: as §11, §12, §13, §14, §15, §16
This efficacy example employs the same test animals and experimental methods as Efficacy Example 2, with the only difference being that the average tumor volume was approximately 130 to 140 mm^3 on the 13th day after inoculation of HCT116 colorectal cancer tumor masses into the test mice. Subsequently, the animals were regrouped based on tumor size and administered the drug according to the same protocol as in Efficacy Example 2. The animals were euthanized on the 30th day after inoculation (i.e., day 18), and their body weights and tumor weights were measured after dissection.

hERG potassium channel = hERG potassium channel (Homo sapiens, UniProt Q12809); conditions: test concentration 30 μM
Sequence of hERG potassium channel (Q12809 whole entry): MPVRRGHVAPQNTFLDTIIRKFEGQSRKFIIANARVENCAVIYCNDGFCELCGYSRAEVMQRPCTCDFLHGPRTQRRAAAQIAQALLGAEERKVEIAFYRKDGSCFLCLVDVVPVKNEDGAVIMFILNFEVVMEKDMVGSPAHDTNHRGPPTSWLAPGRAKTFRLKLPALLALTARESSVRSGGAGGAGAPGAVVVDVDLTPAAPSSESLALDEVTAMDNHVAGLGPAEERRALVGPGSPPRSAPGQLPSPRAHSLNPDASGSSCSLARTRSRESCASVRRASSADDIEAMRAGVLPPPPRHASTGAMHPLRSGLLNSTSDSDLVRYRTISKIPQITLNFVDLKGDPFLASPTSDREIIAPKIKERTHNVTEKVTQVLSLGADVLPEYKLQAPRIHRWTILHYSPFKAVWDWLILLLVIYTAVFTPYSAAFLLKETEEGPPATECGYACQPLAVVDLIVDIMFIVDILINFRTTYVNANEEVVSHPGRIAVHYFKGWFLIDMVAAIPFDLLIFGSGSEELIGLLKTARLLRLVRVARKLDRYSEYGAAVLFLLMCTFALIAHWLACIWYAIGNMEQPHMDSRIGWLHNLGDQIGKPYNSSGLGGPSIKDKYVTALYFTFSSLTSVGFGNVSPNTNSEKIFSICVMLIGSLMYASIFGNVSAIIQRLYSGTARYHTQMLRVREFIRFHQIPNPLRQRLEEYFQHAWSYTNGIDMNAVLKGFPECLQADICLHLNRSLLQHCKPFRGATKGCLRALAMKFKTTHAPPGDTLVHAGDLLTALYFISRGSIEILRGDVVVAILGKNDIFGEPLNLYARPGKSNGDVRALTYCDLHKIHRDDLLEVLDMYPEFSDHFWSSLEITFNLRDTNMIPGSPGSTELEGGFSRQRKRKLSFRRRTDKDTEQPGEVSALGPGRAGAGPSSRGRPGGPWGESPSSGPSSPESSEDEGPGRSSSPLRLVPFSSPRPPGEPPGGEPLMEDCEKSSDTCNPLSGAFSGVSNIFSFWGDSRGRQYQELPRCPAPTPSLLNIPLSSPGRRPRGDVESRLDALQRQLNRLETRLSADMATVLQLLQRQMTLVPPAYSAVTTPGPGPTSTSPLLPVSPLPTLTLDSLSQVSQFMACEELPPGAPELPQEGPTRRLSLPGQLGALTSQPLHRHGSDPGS
Protocol: Experimental Method: CHO-hERG cells were cultured in a 175 cm^2 flask until the cell density reached 60 to 80%. The culture medium was then removed, and the cells were washed once with 7 mL of Phosphate Buffered Saline (PBS). Subsequently, 3 mL of gentle cell detachment solution (Detachin) was added for digestion. Once the digestion was complete, 7 mL of culture medium was added to neutralize the solution. The cells were then centrifuged, and the supernatant was aspirated. To ensure a cell density of 2 to 5×10^6/mL, 5 mL of culture medium was added to resuspend the cells.
The entire process of forming single-cell high-impedance seals and whole-cell recording mode was automatically completed by the high-throughput, fully automated patch clamp system, namely the Qpatch instrument. After obtaining the whole-cell recording mode, the cells were clamped at −80 mV. Prior to applying a 5-second+40 mV depolarization stimulus, a 50-millisecond −50 mV prepulse was given, followed by a repolarization to −50 mV for 5 seconds, and then returning to −80 mV This voltage stimulus was applied every 15 seconds. After recording for 2 minutes, the extracellular solution was recorded for 5 minutes, and then the drug administration process began.
These stock solutions were then diluted 500-fold with extracellular solution to obtain the final concentrations required for testing.

`CC(C)OP(=O)(CN1CCN(C(=O)O[C@H]2CC[C@@]3(C)C(CCC4C3CC[C@]3(C)[C@@H](c5ccc(=O)oc5)CC[C@]43O)C2)CC1)OC(C)C` (some centres unmarked) [IVa] gave an IC50 [1] of 0.019 µM, an IC50 [2] of 0.117 µM and an IC50 [3] of 0.574 µM.
With `CCOP(=O)(CCCN1CCN(C(=O)O[C@H]2CC[C@@]3(C)C(CCC4C3CC[C@]3(C)[C@@H](c5ccc(=O)oc5)CC[C@]43O)C2)CC1)OCC` (some centres unmarked) [IVc] the IC50 [1] was 0.011 µM, the “activity against HCT116 compared with doxorubicin” value [2] was “comparable activity against HCT116 to doxorubicin” and the IC50 [2] was 0.027 µM. For the same molecule, the IC50 [3] was 0.072 µM and the “activity against 95D compared with doxorubicin” value ([3]; versus doxorubicin) was “superior activity against 95D compared to doxorubicin”.
`CCCOP(=O)(CN1CCC(NC(=O)O[C@H]2CC[C@@]3(C)[C@H](CC[C@@H]4[C@@H]3CC[C@]3(C)[C@@H](c5ccc(=O)oc5)CC[C@]43O)C2)CC1)OCCC` [Compound 1e] gave an IC50 [4] of 0.022 µM and an IC50 [5] of 0.058 µM.
With `CCOP(=O)(CCN1CCC(NC(=O)O[C@H]2CC[C@@]3(C)[C@H](CC[C@@H]4[C@@H]3CC[C@]3(C)[C@@H](c5ccc(=O)oc5)CC[C@]43O)C2)CC1)OCC` [Compound 1b] the IC50 [4] was less than 0.004 µM, the IC50 [5] was less than 0.004 µM and the “inhibitory effect on the migration of 95D cells” value (95D cells) was “excellent anti-tumor migration effects”.
Molecule `CO[C@H]1CN(C(=O)O[C@H]2CC[C@@]3(C)[C@H](CC[C@@H]4[C@@H]3CC[C@]3(C)[C@@H](c5ccc(=O)oc5)CC[C@]43O)C2)CC[C@H]1NCP(=O)(OC(C)C)OC(C)C` [Compound 1k] has an IC50 [4] of 0.143 µM and an IC50 [5] of 0.239 µM.
With `CC(C)OP(=O)(CNC1CCN(C(=O)O[C@H]2CC[C@@]3(C)[C@H](CC[C@@H]4[C@@H]3CC[C@]3(C)[C@@H](c5ccc(=O)oc5)CC[C@]43O)C2)CC1)OC(C)C` [Compound 1j] the IC50 [4] was 0.02 µM and the IC50 [5] was 0.216 µM.
`C[C@]12CC[C@H](OC(=O)NC3CCN(CP(=O)(OC4CCCCC4)OC4CCCCC4)CC3)C[C@H]1CC[C@@H]1[C@@H]2CC[C@]2(C)[C@@H](c3ccc(=O)oc3)CC[C@]12O` [Compound 1h] was tested, and the IC50 [4] was 0.336 µM and the IC50 [5] was 0.023 µM.
`COc1cccc2c1C(=O)c1c(O)c3c(c(O)c1C2=O)C[C@@](O)(C(=O)CO)C[C@@H]3O[C@H]1C[C@H](N)[C@H](O)[C@H](C)O1` [Doxorubicin, reference compound] gave an IC50 [4] of 0.054 µM, an IC50 [5] of 0.92 µM and an IC50 [1] of 0.008 µM. It also gave an IC50 [2] of 0.019 µM and an IC50 [3] of 0.115 µM.
`C[C@]12CC[C@H](OC(=O)NC3CCN(CP(=O)(OC4CCCC4)OC4CCCC4)CC3)C[C@H]1CC[C@@H]1[C@@H]2CC[C@]2(C)[C@@H](c3ccc(=O)oc3)CC[C@]12O` [Compound 1g] showed an IC50 [4] of 0.289 µM and an IC50 [5] of 0.422 µM.
For `O=c1[nH]cc(F)c(=O)[nH]1` [5-Fluorouracil, reference compound], the “Animal weight (After tumor removal)” value ([6]; nude mice, HCT116 xenograft) was 19.20 ± 1.84 g, the “RTV (d18)” value ([6]; relative tumor volume, d18) was 5.52 ± 0.81 and the “TGI (%)” value ([6]; tumor volume inhibition) was 56.16%. For the same molecule, the “Animal weight (After tumor removal)” value [7] was 21.84 ± 1.52 g, the “RTV (d18)” value [7] was 7.35 ± 1.55 and the “TGI (%)” value [7] was 59.37%.
`CCOP(=O)(CN1CCN(C(=O)O[C@H]2CC[C@@]3(C)C(CCC4C3CC[C@]3(C)[C@@H](c5ccc(=O)oc5)CC[C@]43O)C2)CC1)OCC` (some centres unmarked) [IVb] was tested, and the IC50 [1] was 0.018 µM, the “activity against HCT116 compared with doxorubicin” value [2] was “comparable activity against HCT116 to doxorubicin” and the IC50 [2] was 0.04 µM. The IC50 [3] was 0.262 µM.
`CCOP(=O)(CCCN1CCC(NC(=O)O[C@H]2CC[C@@]3(C)[C@H](CC[C@@H]4[C@@H]3CC[C@]3(C)[C@@H](c5ccc(=O)oc5)CC[C@]43O)C2)CC1)OCC` [Compound 1c] was tested, and the IC50 [4] was less than 0.004 µM, the IC50 [5] was less than 0.004 µM and the “Animal weight (After tumor removal)” value [7] was 21.02 ± 3.08 g. The “RTV (d18)” value [7] was 6.56 ± 1.79, the “TGI (%)” value [7] was 63.69% and the “Inhibition rate (hERG potassium channel)” value (hERG potassium channel) was 53.8±4.13%.
In the case of `CC(C)OP(=O)(CN1CC[C@@H](NC(=O)O[C@H]2CC[C@@]3(C)[C@H](CC[C@@H]4[C@@H]3CC[C@]3(C)[C@@H](c5ccc(=O)oc5)CC[C@]43O)C2)[C@H](O)C1)OC(C)C` [Compound 1i], the IC50 [4] is reported as 0.008 µM and the IC50 [5] is reported as 0.015 µM.
`CC(C)OP(=O)(CNC1CCN(C(=O)O[C@H]2CC[C@@]3(C)[C@H](CC[C@@H]4[C@@H]3CC[C@]3(C)[C@@H](c5ccc(=O)oc5)CC[C@]43O)C2)CC1F)OC(C)C` (some centres unmarked) [Compound 1l] showed an IC50 [4] of 0.12 µM and an IC50 [5] of 0.283 µM.
With `CCOP(=O)(CN1CCC(NC(=O)O[C@H]2CC[C@@]3(C)[C@H](CC[C@@H]4[C@@H]3CC[C@]3(C)[C@@H](c5ccc(=O)oc5)CC[C@]43O)C2)CC1)OCC` [Compound 1d] the IC50 [4] was 0.024 µM and the IC50 [5] was 0.037 µM.
Molecule `C[C@]12CC[C@H](OC(=O)NC3CCN(CP(=O)(OC4CCC4)OC4CCC4)CC3)C[C@H]1CC[C@@H]1[C@@H]2CC[C@]2(C)[C@@H](c3ccc(=O)oc3)CC[C@]12O` [Compound 1f] has an IC50 [4] of 0.067 µM and an IC50 [5] of 0.026 µM.
